From US7846959B2, “Raf modulators and methods of use” (Exelixis, Inc., priority 2004, dated 2010)

How the values were obtained:
[1] = molecular target: c-Raf (Homo sapiens, UniProt P04049); experiment: Luciferase-coupled chemiluminescence kinase assay (ATP consumption), c-Raf; type: biochemical; conditions: read-out: cRaf-1 IC50
Outline: (§1)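 Enzyme ([…]) was pre-incubated with compound for 30 min at room temperature in 20 mM Tris pH 7.5, 10 mM MgCl2, 0.03% TX-100, 1 mM DTT. ATP was added and the reaction ran 3 h at ambient temperature. Remaining ATP was read by luciferase-luciferin chemiluminescence, giving IC50 values.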

[2] = molecular target: B-Raf (Homo sapiens, UniProt P15056); experiment: Luciferase-coupled chemiluminescence kinase assay (ATP consumption), B-Raf; type: biochemical; conditions: read-out: bRaf IC50
B-Raf, sequence (P15056 whole entry): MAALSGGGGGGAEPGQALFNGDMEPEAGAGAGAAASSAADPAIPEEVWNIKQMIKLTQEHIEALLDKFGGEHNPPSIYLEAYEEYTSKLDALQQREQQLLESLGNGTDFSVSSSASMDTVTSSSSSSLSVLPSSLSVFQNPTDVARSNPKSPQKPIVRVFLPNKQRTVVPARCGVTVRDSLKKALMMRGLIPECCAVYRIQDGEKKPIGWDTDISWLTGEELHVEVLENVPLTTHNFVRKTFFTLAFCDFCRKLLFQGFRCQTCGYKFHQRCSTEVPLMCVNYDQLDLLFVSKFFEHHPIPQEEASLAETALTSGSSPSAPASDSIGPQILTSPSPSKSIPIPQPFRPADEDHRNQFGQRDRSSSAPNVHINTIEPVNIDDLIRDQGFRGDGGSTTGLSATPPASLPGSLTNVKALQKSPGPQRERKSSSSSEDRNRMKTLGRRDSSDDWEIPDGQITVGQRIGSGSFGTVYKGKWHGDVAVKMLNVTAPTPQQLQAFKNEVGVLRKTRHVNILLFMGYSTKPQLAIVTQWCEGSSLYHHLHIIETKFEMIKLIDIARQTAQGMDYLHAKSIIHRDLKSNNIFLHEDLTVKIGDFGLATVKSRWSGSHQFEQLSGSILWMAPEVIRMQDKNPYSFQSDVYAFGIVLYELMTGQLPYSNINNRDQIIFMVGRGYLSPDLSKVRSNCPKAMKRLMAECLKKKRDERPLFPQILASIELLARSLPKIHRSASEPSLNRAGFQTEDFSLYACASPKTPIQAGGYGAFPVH
Outline: as §1

c-Raf, sequence (P04049 whole entry): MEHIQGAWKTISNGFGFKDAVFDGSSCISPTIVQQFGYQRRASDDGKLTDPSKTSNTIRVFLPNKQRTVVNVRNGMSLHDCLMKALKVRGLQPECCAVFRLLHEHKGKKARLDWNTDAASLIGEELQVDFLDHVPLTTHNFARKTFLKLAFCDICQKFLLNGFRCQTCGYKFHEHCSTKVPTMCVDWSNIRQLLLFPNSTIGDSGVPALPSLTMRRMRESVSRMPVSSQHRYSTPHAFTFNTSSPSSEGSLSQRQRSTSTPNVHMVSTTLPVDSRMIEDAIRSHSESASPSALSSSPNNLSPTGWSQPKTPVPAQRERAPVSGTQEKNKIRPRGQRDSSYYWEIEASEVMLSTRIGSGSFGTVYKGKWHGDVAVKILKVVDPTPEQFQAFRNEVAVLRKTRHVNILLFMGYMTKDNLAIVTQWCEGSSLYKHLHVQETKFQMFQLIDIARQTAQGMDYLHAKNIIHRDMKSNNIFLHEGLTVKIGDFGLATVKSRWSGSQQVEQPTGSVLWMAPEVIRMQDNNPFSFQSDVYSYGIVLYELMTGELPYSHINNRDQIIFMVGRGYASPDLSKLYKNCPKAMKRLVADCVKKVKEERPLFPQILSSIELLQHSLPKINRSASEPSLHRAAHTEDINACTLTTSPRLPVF

Row | Structure (SMILES) | IC50 [1] [nM] | IC50 [2] [nM]
1 | COC(=O)Nc1nc2cc(C3(O)c4ccccc4C(=O)N3[C@@H](C)c3ccccc3)ccc2[nH]1 (stereo partly drawn) [Entry 105, methyl (5-{1-hydroxy-3-oxo-2-[(1S)-1-phenylethyl]-2,3-dihydro-1H-isoindol-1-yl}-1H-benzimidazol-2-yl)carbamate] | 1000 to 10000 | 1000 to 10000
2 | COCCOC(=O)Nc1nc2cc(C3(O)c4ccccc4C(=O)N3Cc3ccccc3)ccc2[nH]1 (stereo not drawn) [Entry 106, 2-(methyloxy)ethyl {5-[1-hydroxy-3-oxo-2-(phenylmethyl)-2,3-dihydro-1H-isoindol-1-yl]-1H-benzimidazol-2-yl}carbamate] | < 100 | < 100
3 | COC(=O)Nc1nc2ccc(C3(O)c4ccccc4C(=O)N3Cc3ccccc3)cc2n1C (stereo not drawn) [Entry 107, methyl {6-[1-hydroxy-3-oxo-2-(phenylmethyl)-2,3-dihydro-1H-isoindol-1-yl]-1-methyl-1H-benzimidazol-2-yl}carbamate] | ≥ 10000 | ≥ 10000
4 | C#CCOC(=O)Nc1nc2cc(C3(O)c4ccccc4C(=O)N3Cc3ccccc3)ccc2[nH]1 (stereo not drawn) [Entry 108, prop-2-yn-1-yl {5-[1-hydroxy-3-oxo-2-(phenylmethyl)-2,3-dihydro-1H-isoindol-1-yl]-1H-benzimidazol-2-yl}carbamate] | < 100 | < 100
5 | CC#CCOC(=O)Nc1nc2cc(C3(O)c4ccccc4C(=O)N3Cc3ccccc3)ccc2[nH]1 (stereo not drawn) [Entry 109, but-2-yn-1-yl {5-[1-hydroxy-3-oxo-2-(phenylmethyl)-2,3-dihydro-1H-isoindol-1-yl]-1H-benzimidazol-2-yl}carbamate] | < 100 | < 100
6 | CC(C)OC(=O)Nc1nc2cc(C3(O)c4ccccc4C(=O)N3Cc3ccccc3)ccc2[nH]1 (stereo not drawn) [Entry 110, 1-methylethyl {5-[1-hydroxy-3-oxo-2-(phenylmethyl)-2,3-dihydro-1H-isoindol-1-yl]-1H-benzimidazol-2-yl}carbamate] | < 100 | < 100
7 | COC(=O)Nc1nc2cc(C3(O)c4ccccc4C(=O)N3C3Cc4ccccc4C3)ccc2[nH]1 (stereo not drawn) [Entry 111, methyl {5-[2-(2,3-dihydro-1H-inden-2-yl)-1-hydroxy-3-oxo-2,3-dihydro-1H-isoindol-1-yl]-1H-benzimidazol-2-yl}carbamate] | ≥ 10000 | ≥ 10000
8 | COC(=O)Nc1nc2cc(C3(O)c4ccccc4C(=O)N3Cc3ccncc3)ccc2[nH]1 (stereo not drawn) [Entry 112, methyl {5-[1-hydroxy-3-oxo-2-(pyridin-4-ylmethyl)-2,3-dihydro-1H-isoindol-1-yl]-1H-benzimidazol-2-yl}carbamate] | 1000 to 10000 | ≥ 10000
9 | COC(=O)Nc1nc2cc(C3(O)c4ccccc4C(=O)N3Cc3cccnc3)ccc2[nH]1 (stereo not drawn) [Entry 113, methyl {5-[1-hydroxy-3-oxo-2-(pyridin-3-ylmethyl)-2,3-dihydro-1H-isoindol-1-yl]-1H-benzimidazol-2-yl}carbamate] | 100 to 1000 | 100 to 1000
10 | COC(=O)Nc1nc2ccc(C3(O)c4ccccc4C(=O)N3Cc3cccc(F)c3)cc2[nH]1 (stereo not drawn) [Entry 114, methyl (6-{2-[(3-fluorophenyl)methyl]-1-hydroxy-3-oxo-2,3-dihydro-1H-isoindol-1-yl}-1H-benzimidazol-2-yl)carbamate] | < 100 | < 100
11 | COC(=O)Nc1nc2cc(C3(O)c4ccccc4C(=O)N3c3cccc(C)c3)ccc2[nH]1 (stereo not drawn) [Entry 115, methyl {5-[1-hydroxy-2-(3-methylphenyl)-3-oxo-2,3-dihydro-1H-isoindol-1-yl]-1H-benzimidazol-2-yl}carbamate] | < 100 | < 100
12 | COC(=O)Nc1nc2cc(C3(O)c4ccccc4C(=O)N3Cc3ccccc3OC)ccc2[nH]1 (stereo not drawn) [Entry 116, methyl [5-(1-hydroxy-2-{[2-(methyloxy)phenyl]methyl}-3-oxo-2,3-dihydro-1H-isoindol-1-yl)-1H-benzimidazol-2-yl]carbamate] | 1000 to 10000 | 1000 to 10000
13 | COC(=O)Nc1nc2cc(C3(O)c4ccccc4C(=O)N3Cc3cccc(OC)c3)ccc2[nH]1 (stereo not drawn) [Entry 117, methyl [5-(1-hydroxy-2-{[3-(methyloxy)phenyl]methyl}-3-oxo-2,3-dihydro-1H-isoindol-1-yl)-1H-benzimidazol-2-yl]carbamate] | 100 to 1000 | 100 to 1000
14 | COC(=O)Nc1nc2cc(C3(O)c4ccccc4C(=O)N3Cc3ccc(OC)cc3)ccc2[nH]1 (stereo not drawn) [Entry 118, methyl [5-(1-hydroxy-2-{[4-(methyloxy)phenyl]methyl}-3-oxo-2,3-dihydro-1H-isoindol-1-yl)-1H-benzimidazol-2-yl]carbamate] | ≥ 10000 | ≥ 10000
15 | COC(=O)Nc1nc2ccc(C3(O)c4ccccc4C(=O)N3Cc3ccc(F)cc3)cc2[nH]1 (stereo not drawn) [Entry 119, methyl (6-{2-[(4-fluorophenyl)methyl]-1-hydroxy-3-oxo-2,3-dihydro-1H-isoindol-1-yl}-1H-benzimidazol-2-yl)carbamate] | 100 to 1000 | 100 to 1000
16 | COC(=O)Nc1nc2ccc(C3(O)c4ccccc4C(=O)N3Cc3cccc(Br)c3)cc2[nH]1 (stereo not drawn) [Entry 120, methyl (6-{2-[(3-bromophenyl)methyl]-1-hydroxy-3-oxo-2,3-dihydro-1H-isoindol-1-yl}-1H-benzimidazol-2-yl)carbamate] | < 100 | < 100
17 | COC(=O)Nc1nc2cc(C3(O)c4ccccc4C(=O)N3Cc3cccc(I)c3)ccc2[nH]1 (stereo not drawn) [Entry 121, methyl (5-{1-hydroxy-2-[(3-iodophenyl)methyl]-3-oxo-2,3-dihydro-1H-isoindol-1-yl}-1H-benzimidazol-2-yl)carbamate] | 100 to 1000 | 100 to 1000
18 | COC(=O)Nc1nc2cc(C3(O)c4ccccc4C(=O)N3Cc3cccc(Cl)c3)ccc2[nH]1 (stereo not drawn) [Entry 122, methyl (5-{2-[(3-chlorophenyl)methyl]-1-hydroxy-3-oxo-2,3-dihydro-1H-isoindol-1-yl}-1H-benzimidazol-2-yl)carbamate] | < 100 | < 100
19 | COC(=O)Nc1nc2cc(C3(O)c4ccccc4C(=O)N3Cc3ccccc3F)ccc2[nH]1 (stereo not drawn) [Entry 123, methyl (5-{2-[(2-fluorophenyl)methyl]-1-hydroxy-3-oxo-2,3-dihydro-1H-isoindol-1-yl}-1H-benzimidazol-2-yl)carbamate] | < 100 | < 100
20 | COC(=O)Nc1nc2cc(C3(O)c4ccccc4C(=O)N3Cc3ccccn3)ccc2[nH]1 (stereo not drawn) [Entry 124, methyl {5-[1-hydroxy-3-oxo-2-(pyridin-2-ylmethyl)-2,3-dihydro-1H-isoindol-1-yl]-1H-benzimidazol-2-yl}carbamate] | 100 to 1000 | 100 to 1000
21 | O=C(Nc1nc2cc(C3(O)c4ccccc4C(=O)N3Cc3ccccc3)ccc2[nH]1)OCc1ccccc1 (stereo not drawn) [Entry 125, phenylmethyl {5-[1-hydroxy-3-oxo-2-(phenylmethyl)-2,3-dihydro-1H-isoindol-1-yl]-1H-benzimidazol-2-yl}carbamate] | < 100 | < 100
22 | O=C(Nc1nc2cc(C3(O)c4ccccc4C(=O)N3Cc3ccccc3)ccc2[nH]1)OCCF (stereo not drawn) [Entry 126, 2-fluoroethyl {5-[1-hydroxy-3-oxo-2-(phenylmethyl)-2,3-dihydro-1H-isoindol-1-yl]-1H-benzimidazol-2-yl}carbamate] | < 100 | < 100
23 | CCCOC(=O)Nc1nc2cc(C3(O)c4ccccc4C(=O)N3Cc3ccccc3)ccc2[nH]1 (stereo not drawn) [Entry 127, propyl {5-[1-hydroxy-3-oxo-2-(phenylmethyl)-2,3-dihydro-1H-isoindol-1-yl]-1H-benzimidazol-2-yl}carbamate] | < 100 | < 100
24 | COC(=O)Nc1nc2cc(C3(O)c4ccccc4C(=O)N3c3ccc(OC)cc3)ccc2[nH]1 (stereo not drawn) [Entry 128, methyl (5-{1-hydroxy-2-[4-(methyloxy)phenyl]-3-oxo-2,3-dihydro-1H-isoindol-1-yl}-1H-benzimidazol-2-yl)carbamate] | 1000 to 10000 | 1000 to 10000
25 | COC(=O)Nc1nc2cc(C3(O)c4ccccc4C(=O)N3Cc3ccccc3Cl)ccc2[nH]1 (stereo not drawn) [Entry 129, methyl (5-{2-[(2-chlorophenyl)methyl]-1-hydroxy-3-oxo-2,3-dihydro-1H-isoindol-1-yl}-1H-benzimidazol-2-yl)carbamate] | < 100 | 100 to 1000
26 | COC(=O)Nc1nc2cc(C3(O)c4ccccc4C(=O)N3Cc3ccccc3Br)ccc2[nH]1 (stereo not drawn) [Entry 130, methyl (5-{2-[(2-bromophenyl)methyl]-1-hydroxy-3-oxo-2,3-dihydro-1H-isoindol-1-yl}-1H-benzimidazol-2-yl)carbamate] | 100 to 1000 | 100 to 1000
27 | COC(=O)Nc1nc2cc(C3(O)c4ccccc4C(=O)N3Cc3cccc(C)c3)ccc2[nH]1 (stereo not drawn) [Entry 131, methyl (5-{1-hydroxy-2-[(3-methylphenyl)methyl]-3-oxo-2,3-dihydro-1H-isoindol-1-yl}-1H-benzimidazol-2-yl)carbamate] | < 100 | < 100
28 | COC(=O)Nc1nc2cc(C3(O)c4ccccc4C(=O)N3Cc3ccc(C)cc3)ccc2[nH]1 (stereo not drawn) [Entry 132, methyl (5-{1-hydroxy-2-[(4-methylphenyl)methyl]-3-oxo-2,3-dihydro-1H-isoindol-1-yl}-1H-benzimidazol-2-yl)carbamate] | 100 to 1000 | 1000 to 10000
29 | COC(=O)Nc1nc2cc(C3(O)c4ccccc4C(=O)N3Cc3ccccc3C)ccc2[nH]1 (stereo not drawn) [Entry 133, methyl (5-{1-hydroxy-2-[(2-methylphenyl)methyl]-3-oxo-2,3-dihydro-1H-isoindol-1-yl}-1H-benzimidazol-2-yl)carbamate] | < 100 | < 100
30 | COC(=O)Nc1nc2cc(C3(O)c4ccccc4C(=O)N3c3cccc(Br)c3)ccc2[nH]1 (stereo not drawn) [Entry 134, methyl {5-[2-(3-bromophenyl)-1-hydroxy-3-oxo-2,3-dihydro-1H-isoindol-1-yl]-1H-benzimidazol-2-yl}carbamate] | < 100 | < 100
